Test results taken from article PMC8548882, “The Trp-rich Antimicrobial Amphiphiles With Intramolecular Aromatic Interactions for the Treatment of Bacterial Infection” (Frontiers in Microbiology, 2021).
pIC50: −log10 of the molar value. In brackets after ≈: the same amount, converted by molar mass. Like-named read-outs stand apart in the source and are kept apart here. Ends that are not written are not given here.

Assays:
[1] = test system: human red blood cells (hRBCs); assay: Hemolytic activity; assay type: cell-based; conditions: for HC5 (MHC), lowest concentration that caused 5% hemolysis: hRBC in PBS pH 7.2, 1h at 37°C, absorbance 570nm, vs 0.1% Triton X-100, highest test concentration 128μM; for Therapeutic index (TI): hRBC, ratio of MHC to GM
From the text: The hemolytic activity of peptides was reflected by the releasing amount of hemoglobin from erythrocytes lysis induced by peptides ([Dong et al., 2014a]). The informed consent was obtained from the volunteers (3 healthy 25-year-old male volunteers) before the experiment. In brief, the human red blood cells (hRBCs), donated by volunteer, were collected, washed, and resuspended in PBS at pH 7.2. The peptides were serially diluted in PBS at different concentrations in a 96-well cell cultures plate and incubated with 50μl hRBCs for 1h at 37°C. The 0.1% Trition X-100 was selected as the treatment of positive control and the negative control was the hRBCs treated with PBS. After 1h incubation, the supernatant, obtained by centrifuging the plate 1,000g for 5min, was transferred to a brand-new plate for absorbance detection at 570nm. The releasing amount of hemoglobin was converted to the percent hemolysis against to 0.1% Triton X-100 treatment. The lowest concentration caused 5% hemolysis of hRBCs and was defined as the lowest hemolytic concentration of antimicrobial peptide.

[2] = test system: S.typhimurium 7731; assay type: cell-based, Salmonella enterica serovar typhimurium C77-31
From the text: (§1) The tested strains were kindly provided by the laboratory of Veterinary Microbiology and Immunology, the College of Veterinary Medicine, Northeast Agricultural University (gram-negative bacteria, Salmonella enterica serovar typhimurium C77-31, Salmonella typhimurium ATCC 14028, Escherichia coli ATCC 25922, Pseudomonas aeruginosa ATCC 27853 and gram-positive bacteria, Staphylococcus aureus ATCC 29213, Staphylococcus aureus ATCC 43300, Staphylococcus epidermidis ATCC 12228, Staphylococcus aureus ATCC 25923).

[3] = test system: S.epidermidis 12228; assay type: cell-based, Staphylococcus epidermidis ATCC 12228
From the text: as §1

[4] = test system: S.typhimurium 14028; assay type: cell-based, Salmonella typhimurium ATCC 14028
From the text: as §1

[5] = test system: E. coli 25922; assay type: cell-based, Escherichia coli ATCC 25922
From the text: as §1

[6] = test system: P.aeruginosa 27853; assay type: cell-based, Pseudomonas aeruginosa ATCC 27853
From the text: as §1
(§2) The famous microtiter dilution, National Committee for Clinical Laboratory Standards, was adopted to measure the antimicrobial ability of the engineering peptides ([Chou et al., 2016]). In brief, the 50μl with serial dilution was incubated with the same volume bacteria (1×10^5CFU/ml in midi-logarithmic phase) in a 96-well plate 18–24h at 37°C. The positive control was the bacteria treated with culture medium and the negative control was merely culture medium. The MICs (minimum inhibitory concentrations) were defined as the lowest concentration of peptides that prevented the production of visible turbidity ([Tossi et al., 2000]).

[7] = test system: IPEC-J2 cells; assay type: cell-based, porcine; conditions: for Therapeutic index (TI): IPEC-J2, ratio of IC50 to GM
Description: (§3) The MTT (3-[4,5 dimethylthiozol-2-yl]-2,5-diphenylterazoliumbromide) dye was selected to analyze the cytotoxicity of peptides against the murine macrophage cell RAW 264.7 (National Collection of Authenticated Cell Cultures, Shanghai, China), human embryonic kidneys (HK293T), and the porcine intestinal epithelial cells (IPEC-J2) as in our previously study ([Li et al., 2020]). In short, the cells (10^4 cells/well) were seeded into 96-well plates and were cultivated overnight. Then the peptides with different final concentration (2μM, 4μM, 8μM, 16μM, 32μM, 64μM, and 128μM) were introduced into the plate and challenged with cells for 24h. After overnight incubation, the 50μl MTT (0.5mg/ml) was added into the cell cultures for 4h. Then the plate was centrifuged to discard the supernatants and obtain the formazan crystals. The DMSO (dimethyl sulfoxide) was employed as a solvent to dissolve the formazan crystals on the bottom of the plate and the optical density was read at 492nm with a microplate reader.

[8] = test system: hRBC, IPEC-J2, HEK 293T, RAW264.7
Description: Besides, the therapeutic index of peptide in the mammalian eukaryotic cell (RAW 264.7, HEK 293T, and IPEC J2) was also calculated to study the biocompatibility of peptides.

[9] = test system: S.aureus 25923; assay type: cell-based, Staphylococcus aureus ATCC 25923
From the text: as §1, §2

[10] = test system: panel of gram-negative and gram-positive bacteria; conditions: over the eight strains of Table 2
Description: as §2

[11] = test system: RAW 264.7 cells; assay type: cell-based, murine; conditions: RAW264.7; ratio of IC50 to GM
Description: as §3

[12] = test system: HEK 293T cells; assay type: cell-based, human; conditions: ratio of IC50 to GM
Description: as §3

[13] = test system: MRSA 43300; assay type: cell-based, Staphylococcus aureus ATCC 43300; conditions: microtiter dilution, 1×10^5CFU/ml, 18–24h at 37°C, visible turbidity
From the text: as §1, §2

[14] = test system: S.aureus 29213; assay type: cell-based, Staphylococcus aureus ATCC 29213
From the text: as §1, §2

[15] = test system: Pseudomonas aeruginosa ATCC 27853; assay: Subcutaneous abscess model; conditions: 5mg/kg
[16] = microtiter dilution, 1×10^5CFU/ml, 18–24h at 37°C, visible turbidity

Compound | HC5 (MHC), lowest concentration that caused 5% hemolysis [1] | Therapeutic index (TI) [1] | MIC [2] | MIC [3] | MIC [4] | MIC [5] | MIC [6]; 27853 | Therapeutic index (TI) [7] | GMTI, geometric mean of TI of various cell lines [8] | MIC [9]; 25923 | GMMIC, geometric mean of the MICs [10] | Therapeutic index (TI) [11] | Therapeutic index (TI) [12] | MIC [13] | MIC [14]; 29213 | further results
VKKWVKKAVKKWVKKA-NH2 [VW1] | >128 µM | > 1.68 | >64 µM | 64 µM | 64 µM | 64 µM | 32 µM | 120.77 | >35.28 | >64 µM | 76.11 µM | 87.91 | 86.82 | >64 µM | 64 µM | 
VKKLVKKLVKKLVKKL-NH2 [VL5] | >128 µM | > 26.89 | 2 µM | 4 µM | 4 µM | 8 µM | 2 µM | 957.83 | >357.80 | 8 µM | 4.76 µM | 404.20 | 1574.26 | 8 µM | 8 µM | TI (hRBC) fold smaller than VW5 [1]: about 2.8 fold
VKKLVKKLVKKAVKKL-NH2 [VL4] |  |  | 16 µM | 32 µM | 32 µM | 16 µM | 8 µM |  | >104.47 | 16 µM |  |  |  |  | 16 µM | 
VKKWVKKWVKKWVKKA-NH2 [VW4] | >128 µM | > 38.1 | 2 µM | 4 µM | 4 µM | 4 µM | 2 µM | 1855.95 | >775.15 | 4 µM | 3.36 µM | 1855.65 | 2751.71 | 4 µM | 4 µM | 
VKKLVKKLVKKLVKKA-NH2 [VL3] |  |  | 32 µM | 32 µM | 32 µM | 16 µM | 8 µM |  | >122.44 | 32 µM |  |  |  |  | 16 µM | 
O=C(O)c1cn(C2CC2)c2cc(N3CCNCC3)c(F)cc2c1=O [ciprofloxacin, reference compound] |  |  |  |  |  |  |  |  |  |  |  |  |  |  |  | IL-1β in serum ([15]; Day 3, ELISA, saline 95.99±4.31): 72.18 ± 3.54 pg/mL; IL-1α in serum ([15]; Day 3, ELISA, saline 99.95±4.71): 80.08 ± 4.04 pg/mL; TNF-α in serum ([15]; Day 3, ELISA, saline 1020.654±51.08): 773.35 ± 40.55 pg/mL; IL-2 in serum ([15]; Day 3, ELISA, saline 1492.65±48.11): 1250.826 ± 43.60 pg/mL; histological examination of abscess lesion, dermal tissue structures ([15]; HE staining, Day 3): relative integrity
VKKWVKKWVKKAVKKA-NH2 [VW2] | >128 µM | > 3.08 | 64 µM | 64 µM | 64 µM | 8 µM | 8 µM | 136.45 | >53.63 | 64 µM | 41.50 µM | 136.50 | 144.05 | 64 µM | 64 µM | 
VKKWVKKWVKKAVKKW-NH2 [VW3] | >128 µM | > 17.44 | 8 µM | 8 µM | 8 µM | 4 µM | 4 µM | 646.97 | >320.73 | 8 µM | 7.34 µM | 647.10 | 1449.42 | 8 µM | 16 µM | 
CC[C@H](C)[C@H](NC(=O)CN)C(=O)NCC(=O)N[C@@H](C)C(=O)N[C@H](C(=O)N[C@@H](CC(C)C)C(=O)N[C@@H](CCCCN)C(=O)N[C@H](C(=O)N[C@@H](CC(C)C)C(=O)N[C@H](C(=O)N[C@H](C(=O)NCC(=O)N[C@@H](CC(C)C)C(=O)N1CCC[C@H]1C(=O)N[C@@H](C)C(=O)N[C@@H](CC(C)C)C(=O)N[C@H](C(=O)N[C@@H](CO)C(=O)N[C@@H](Cc1c[nH]c2ccccc12)C(=O)N[C@H](C(=O)N[C@@H](CCCCN)C(=O)N[C@@H](CCCNC(=N)N)C(=O)N[C@@H](CCCCN)C(=O)N[C@@H](CCCNC(=N)N)C(=O)N[C@@H](CCC(N)=O)C(=O)N[C@@H](CCC(N)=O)C(N)=O)[C@@H](C)CC)[C@@H](C)CC)[C@@H](C)O)[C@@H](C)O)C(C)C)C(C)C [Melittin, reference compound] |  |  |  |  |  |  |  |  |  |  | 1.68 µM |  |  | 4 µM (≈ 11.4 µg/mL) |  | MIC [6, 16]: 2 µM (≈ 5.69 µg/mL); cell viability ([7]; IPEC J2, MTT, 24h, 32μM): below 5%; pIC50 ([7]; IPEC-J2, MTT, 24h, tested 2–128μM): 5.48; GMTI, geometric mean of TI of various cell lines ([8]; hRBC, IPEC-J2, HEK 293T, RAW264.7): 1.71; MIC [9, 16]: 2 µM (≈ 5.69 µg/mL); MIC [14, 16]: 4 µM (≈ 11.4 µg/mL)
VKKLVKKLVKKAVKKA-NH2 [VL2] | >128 µM | >1.09 | >64 µM | >64 µM | >64 µM | >64 µM | 64 µM | 87.76 | >25.74 | >64 µM | 117.38 µM | 64.03 | 71.65 | >64 µM | >64 µM | 
